Measured values from patent US12419878B2, “Sustained release local anesthetic hydrogel composition” (THE GOVERNING COUNCIL OF THE UNIVERSITY OF TORONTO, priority 2019, dated 2025).
Structures can show the parent of a compound that is named as a salt.

Assay: Plasma pharmacokinetics of ropivacaine in sciatic nerve blockade model
Type: in vivo, Sprague-Dawley rats
Excerpt: Male Sprague-Dawley rats, approximately 400-500 g in weight, were anesthetized with 3-5% isoflurane and maintained as required. The left hind leg was shaved, cleaned twice with iodine and 70% ethanol, and a sterile drape placed over the animal to create a sterile field. An incision was made in the skin and the sciatic nerve exposed using a blunt dissection. The treatment was applied, the muscle and incision closed with sutures, and animals allowed to recover under a heat lamp. Controls were injected with vehicle only (i.e. HAMC) or ropivacaine in solution.
Blood samples were taken from the tail veins and quantified using mass-spectrometry. All extractions and mass-spectrometry was carried out by the Analytical Facility for Bioactive Molecules (The Hospital for Sick Children, Toronto, Canada).
To gain insight into the pharmacokinetics of ropivacaine released from HAMC, the sciatic nerve block procedure was performed as described. Animals were treated with ropivacaine-loaded 1.4:3 HAMC at doses of 30, 60, 90 or 120 mg/kg of particulate ropivacaine (<100 μm). Control animals received HAMC alone or ropivacaine in solution at 24 mg/kg. Each animal received approximately 400 μL of treatment. For the HAMC groups, blood was sampled by tail vein puncture at 2 h, 4 h, 6 h, 12 h, 20 h, 30 h, 48 h and 72 h. […]
All statistical analyses were performed using GraphPad Prism (GraphPad Software 6, San Diego, CA, USA). Differences among 4 groups were assessed by one-way ANOVA followed by either Dunnett's or Tukey's multiple comparisons test to identify statistical significance. […] The area under the curve (AUC) was calculated for each HAMC-ropivacaine pharmacokinetic profile, and the subsequent AUC vs HAMC-ropivacaine relationship was fit to a linear regression.
A pharmacokinetics study was performed to evaluate the systemic plasma distribution of ropivacaine when delivered either from HAMC or as bolus liquid solution. […] Blood was sampled by tail vein puncture over time, and the amount of ropivacaine was quantified by LC-MS/MS.

[1] = Sprague-Dawley, rat, plasma, 24 mg/kg at left sciatic nerve, male rats

plasma levels (24 mg/kg, by 24 h): negligible plasma levels
Cmax [1]: 1000 ng/mL
Tmax [1]: 1 h
Compound: CCCN1CCCC[C@H]1C(=O)Nc1c(C)cccc1C [ropivacaine solution, ropivacaine·HCl]
